Laboratory results taken from patent US20100292178A1, “Method of treating non-insulin dependent diabetes mellitus and related complications” (priority 2003, published 2010).
Read-outs that look alike come from different tables or passages of the source.

Assays:
[1] = system: patients with diabetic limb-end gangrene; test: Clinical observation of diabetic limb-end gangrene treated with Glucosynergy
[2] = Pharmacokinetics of a single oral dose of berberine in human patients; assay type: in vivo; conditions: 300 mg orally
[3] = Excretion of labeled berberine after injection into large mice; assay type: in vivo; conditions: within six days after injection
Description: Within the six days after the injection of the labeled berberine into large mice, the amounts of the labeled berberine found in the mice's urine and feces were 73% and 10.9% of the injected concentration respectively. The labeled berberine found in the urine was primarily the original form although some of it became metabolized products.
(§1) All samples are calibrated by using an internal standard.

[4] = design: species or system domestic rabbits; conditions: rabbit, in vivo
Procedure: The effect of the berberine is the most quickly and distributed extensively, when the berberine is labeled with Hydrogen 3 and is administered to domestic rabbits by direct feeding that berberine is injected through a non-invasive tube directly through the mouth or by injection. […] The total amount in the blood plasma is 38%±3%.
as §1

[5] = rabbit, in vivo
Procedure: Pharmokinetic properties of berberine are performed by conventional method involving radioactive isotope. […] All samples are calibrated by using an internal standard.
300 μg quinidine is added to the test tube as an internal standard. One ml chloroform is added into the test tube, which is shaken for ten minutes. Then, the test tube is centrifuged at 400 rev/min for five minutes with a sufficient gravity for separating residues from its liquid. An absolute amount of 0.8 ml of the chloroform is collected by a pipette and is subsequently dried by blowing air. The residue from the dried chloroform is collected and dissolved in a suitable amount of dry ethanol which contains essentially no water. The sample is ready for analysis using thin layer chromatography.
A silica gel plate is cut into nine strips, each being 1.0 cm wide. Separation is conducted under running buffer of ethyl acetate, ethyl methanoate, methanol and water mixture at a ratio of 5.4:4.6:1.2:1.0. The sample size is 5 μl. When a desirable separation is achieved, the strips are scanned for reflective intensity at wavelength λex, 350 nm and λem 550 nm using Japanese Shimatsu CS-900 double wavelengths thin layer reflective straight line scanner with a Xenon lamp. […] All scans are performed with 0.5 mm×10 mm slit, at scanning speed 20 mm/min, and at recording paper speed 10 mm/min.
After the blood serum's pH is adjusted to basic, ethyl ether is used to extract berberine. After it is dried, the residues are dissolved in a mobile phase. A fixed amount of sample is introduced into the HPLC system containing a reverse C18 column. The mobile phase is methanol, water and ethylenediamine at a ratio of 75:25:0.5. The pH is adjusted to 6.8 by using acetic acid. Concentration or amount is monitored at wavelength (λ) 345 nm.
C=Ae^−a+Be^−β−(A−B)e^−kat, where ka is average rate constant weighed by their coefficients: ka=(Aβ+Bα)/(A+B).

[6] = cited from earlier work
[7] = 70 cases Observation Group, 50 cases Contrast Group
[8] = Treatment Group 18 cases, Contrast Group 6 cases

With `CN(C)C(=N)N=C(N)N` [Glucophage] the “electrocardiogram hypertrophic cardiomyopathy: effective” value [1, 7] was 12 cases, the “electrocardiogram hypertrophic cardiomyopathy: not effective” value [1, 7] was 35 cases and the “electrocardiogram hypertrophic cardiomyopathy: outstandingly effective” value [1, 7] was 3 cases. For the same molecule, the “electrocardiogram hypertrophic cardiomyopathy: total effective rate” value [1, 7] was 30%, the Fibrinogen ([1]; After Treatment) was 3.45 ± 0.44 q/L and the HDL ([1]; After Treatment) was 1.12 ± 0.24 mmol/L. For the same molecule, the LDL ([1]; After Treatment) was 4.51 ± 0.81 mmol/L, the “Red Cells Accumulation” value ([1]; After Treatment) was 49.50 ± 4.86% and the TC ([1]; After Treatment) was 5.40 ± 0.76 mmol/L. For the same molecule, the TG ([1]; After Treatment) was 3.39 ± 0.76 mmol/L, the “Total Blood Viscosity High Excise” value ([1]; After Treatment) was 6.33 ± 0.34 mpa · s and the “Total Blood Viscosity Low Excise” value ([1]; After Treatment) was 15.19 ± 2.10 mpa · s. For the same molecule, the “Viscosity Plasma” value ([1]; After Treatment) was 2.45 ± 0.37, the Fibrinogen ([1]; Before Treatment) was 3.90 ± 0.81 q/L and the HDL ([1]; Before Treatment) was 1.07 ± 0.20 mmol/L. The LDL ([1]; Before Treatment) was 5.27 ± 1.24 mmol/L, the “Red Cells Accumulation” value ([1]; Before Treatment) was 49.58 ± 4.34% and the TC ([1]; Before Treatment) was 5.89 ± 1.17 mmol/L. For the same molecule, the TG ([1]; Before Treatment) was 3.54 ± 0.67 mmol/L, the “Total Blood Viscosity High Excise” value ([1]; Before Treatment) was 6.23 ± 0.57 mpa · s and the “Total Blood Viscosity Low Excise” value ([1]; Before Treatment) was 15.21 ± 2.17 mpa · s. The “Viscosity Plasma” value ([1]; Before Treatment) was 2.72 ± 0.66, the cases ineffective ([1]; Contrast Group 6 cases) was 3 cases and the cases improved [1, 8] was 2 cases. The cases recovered [1, 8] was 1 cases, the “24 hours fixed quantity of uric sugar, Before Treatment” value ([1]; baseline) was 15.23 ± 3.02 g/24 h and the “Serum SOD Vitality, Before Treatment” value ([1]; baseline) was 89.96 ± 18.21 nu/L. The “24 hours fixed quantity of uric sugar, After Treatment” value ([1]; human, in vivo) was 8.37 ± 1.89 g/24 h, the “Serum SOD Vitality, After Treatment” value ([1]; human, in vivo) was 94.21 ± 17.03 nu/L and the “Serum SOD Vitality, Value of Difference” value ([1]; human, in vivo) was −4.25 ± 3.33 nu/L.

With `COc1ccc2cc3[n+](cc2c1OC)CCc1cc2c(cc1-3)OCO2` [berberine] the “maximum plasma concentration Cmax” value [2] was 395 ng/mL, the “t½ corresponding to elimination rate constant Ke” value [2] was 2.94 h and the Tmax ([2]; human, plasma, po, read-out: time to peak plasma concentration, tmax) was 2.37 h. The half-life ([2]; human, plasma, po, read-out: t½ corresponding to apparent absorption rate constant ka (converted)) was 0.87 h, the “amount of labeled berberine found in feces” value [3] was 10.9 % of the injected concentration and the “amount of labeled berberine found in urine” value [3] was 73 % of the injected concentration. For the same molecule, the “tissue concentration measured by radiation intensity” value [4] was “the highest in the lung, and then in liver, spleen, kidney and heart”, the “total amount in the blood plasma” value [4] was 38%±3% and the “time to maximum concentration in the blood” value [5] was “about 50 minutes”. The “apparent distribution volume (Vd)” value ([5]; iv) was 22.1 ± 1.71 L/kg, the “apparent half life for elimination (t½ β)” value ([5]; iv) was 35.8 ± 2.0 h and the “apparent half life of distribution (t½ α)” value ([5]; iv) was 1.03 ± 0.11 h. For the same molecule, the apparent drug distribution volume (Vd) ([5]; po) was 20 ± 3 L/kg, the “apparent half life for elimination (t½ β)” value ([5]; po) was 35.3 ± 1.3 h and the “apparent half life of distribution (t½ α)” value ([5]; po) was 1.41 ± 0.16 h. For the same molecule, the “apparent rate constant ka” value ([5]; po) was 2.45±0.22 per hour.

In the case of `OC[C@H]1O[C@@H](O[C@@H]2OC=C[C@H]3[C@H](O)[C@@H]4O[C@]4(CO)[C@@H]23)[C@H](O)[C@@H](O)[C@@H]1O` [catalpol], the “solubility in lipophilic organic solvents” value ([6]; chloroform, benzene, petroleum ether) is given as “almost insoluble” and the “solubility in water and methanol” value [6] is given as “highly soluble”.
